Data published in ChEMBL document CHEMBL1201861, “Genomics of Drug Sensitity in Cancer screening data, Wellcome Trust Sanger Institute”.

Key:
Experiment in all cases: cells
COLO-829 = format: functional, cell-based, Homo sapiens; details: Homo sapiens, COLO-829
Description: SANGER: Inhibition of human COLO-829 cell growth in a cell viability assay.

CaR-1 = format: functional, cell-based, Homo sapiens; details: Homo sapiens, CaR-1;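 further: growth inhibition of human CaR-1 cancer cells, read out with a cell viability assay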
Description: SANGER: Inhibition of human CaR-1 cell growth in a cell viability assay.

Calu-3 = format: functional, cell-based, Homo sapiens; details: Homo sapiens, Calu-3;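 further: growth inhibition of human Calu-3 cells, determined with a cell viability assay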
Description: SANGER: Inhibition of human Calu-3 cell growth in a cell viability assay.

ChaGo-K-1 = format: functional, cell-based; details: Homo sapiens;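 further: growth inhibition of ChaGo-K-1 cells, read out with a cell viability assay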
Description: SANGER: Inhibition of human ChaGo-K-1 cell growth in a cell viability assay.

D-542MG = format: functional, cell-based, Homo sapiens; details: Homo sapiens, D-542MG
Description: SANGER: Inhibition of human D-542MG cell growth in a cell viability assay.

DEL = format: functional, cell-based; details: Homo sapiens;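 further: growth inhibition of the human DEL cell line, read out with a cell viability assay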
Description: SANGER: Inhibition of human DEL cell growth in a cell viability assay.

DU-4475 = format: functional, cell-based; details: Homo sapiens
Description: SANGER: Inhibition of human DU-4475 cell growth in a cell viability assay.

HCT-116 = format: functional, cell-based, Homo sapiens; details: Homo sapiens, HCT-116
Description: SANGER: Inhibition of human HCT-116 cell growth in a cell viability assay.

HEC-1 = format: functional, cell-based, Homo sapiens; details: Homo sapiens, HEC-1;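 further: growth inhibition of the cell line, read out with a cell viability assay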
Description: SANGER: Inhibition of human HEC-1 cell growth in a cell viability assay.

HL-60 = format: functional, cell-based; details: Homo sapiens;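 further: growth inhibition of human HL-60 cells, read out with a cell viability assay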
Description: SANGER: Inhibition of human HL-60 cell growth in a cell viability assay.

HPAF-II = format: functional, cell-based, Homo sapiens; details: Homo sapiens, HPAF-II;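 further: growth inhibition of HPAF-II cells, read out with a cell viability assay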
Description: SANGER: Inhibition of human HPAF-II cell growth in a cell viability assay.

HT1197 = format: functional, cell-based, Homo sapiens, HT-1197; details: Homo sapiens, HT1197
Description: SANGER: Inhibition of human HT-1197 cell growth in a cell viability assay.

HT-144 = format: functional, cell-based, Homo sapiens; details: Homo sapiens, HT-144
Description: SANGER: Inhibition of human HT-144 cell growth in a cell viability assay.

JAR = format: functional, cell-based, Homo sapiens; details: Homo sapiens, JAR;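 further: growth inhibition of human JAR cells determined with a cell viability assay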
KARPAS-299 = format: functional, cell-based; details: Homo sapiens
Description: SANGER: Inhibition of human KARPAS-299 cell growth in a cell viability assay.

LNCaP-Clone-FGC = format: functional, cell-based, Homo sapiens; details: Homo sapiens, LNCaP-Clone-FGC
Description: SANGER: Inhibition of human LNCaP-Clone-FGC cell growth in a cell viability assay.

MZ2-MEL = format: functional, cell-based, Homo sapiens; details: Homo sapiens, MZ2-MEL;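 further: growth inhibition of MZ2-MEL cells read out with a cell viability assay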
Description: SANGER: Inhibition of human MZ2-MEL cell growth in a cell viability assay.

NCI-H1563 = format: functional, cell-based, Homo sapiens; details: Homo sapiens, NCI-H1563;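 further: growth inhibition of human NCI-H1563 cells, read out with a cell viability assay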
Description: SANGER: Inhibition of human NCI-H1563 cell growth in a cell viability assay.

NCI-H1693 = format: functional, cell-based, Homo sapiens; details: Homo sapiens, NCI-H1693;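 further: growth inhibition of the human cell line, read out with a cell viability assay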
Description: SANGER: Inhibition of human NCI-H1693 cell growth in a cell viability assay.

NCI-H1770 = format: functional, cell-based; details: Homo sapiens;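 further: growth inhibition of NCI-H1770 cells determined with a viability readout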
Description: SANGER: Inhibition of human NCI-H1770 cell growth in a cell viability assay.

NCI-H209 = format: functional, cell-based; details: Homo sapiens;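 further: growth inhibition of human NCI-H209 cells, measured by a cell viability assay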
Description: SANGER: Inhibition of human NCI-H209 cell growth in a cell viability assay.

NCI-H2228 = format: functional, cell-based, Homo sapiens; details: Homo sapiens, NCI-H2228;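 further: growth inhibition of human NCI-H2228 cells, read out by a cell viability assay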
Description: SANGER: Inhibition of human NCI-H2228 cell growth in a cell viability assay.

NCI-H23 = format: functional, cell-based, Homo sapiens; details: Homo sapiens, NCI-H23;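 further: cell viability assay measuring growth inhibition of NCI-H23 cells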
Description: SANGER: Inhibition of human NCI-H23 cell growth in a cell viability assay.

NCI-H358 = format: functional, cell-based, Homo sapiens; details: Homo sapiens, NCI-H358;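 further: growth inhibition of NCI-H358 human cells, read out with a cell viability assay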
Description: SANGER: Inhibition of human NCI-H358 cell growth in a cell viability assay.

NCI-H526 = format: functional, cell-based; details: Homo sapiens;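 further: growth inhibition of the human NCI-H526 cell line, measured by a cell viability assay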
Description: SANGER: Inhibition of human NCI-H526 cell growth in a cell viability assay.

NCI-H650 = format: functional, cell-based, Homo sapiens; details: Homo sapiens, NCI-H650;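 further: growth inhibition of NCI-H650 cells, read out by a viability assay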
Description: SANGER: Inhibition of human NCI-H650 cell growth in a cell viability assay.

NCI-H661 = format: functional, cell-based, Homo sapiens; details: Homo sapiens, NCI-H661;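 further: cell viability assay read-out, IC50 being the concentration that inhibits growth of the cells by half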
Description: SANGER: Inhibition of human NCI-H661 cell growth in a cell viability assay.

SNU1 = format: functional, cell-based; details: Homo sapiens;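 further: growth inhibition of human NCI-SNU-1 cells, measured with a cell viability assay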
Description: SANGER: Inhibition of human NCI-SNU-1 cell growth in a cell viability assay.

OVCAR-8 = format: functional, cell-based, Homo sapiens; details: Homo sapiens, OVCAR-8;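 further: growth inhibition of human OVCAR-8 cells, read out by a cell viability assay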
Description: SANGER: Inhibition of human OVCAR-8 cell growth in a cell viability assay.

PFSK-1 = format: functional, cell-based, Homo sapiens; details: Homo sapiens, PFSK-1;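 further: cell viability assay measuring how strongly compounds suppress growth of human PFSK-1 cells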
Description: SANGER: Inhibition of human PFSK-1 cell growth in a cell viability assay.

RMG-I = format: functional, cell-based, Homo sapiens; details: Homo sapiens, RMG-I;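 further: growth inhibition of human RMG-I cells, read out with a cell viability assay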
Description: SANGER: Inhibition of human RMG-I cell growth in a cell viability assay.

RVH-421 = format: functional, cell-based, Homo sapiens; details: Homo sapiens, RVH-421
Description: SANGER: Inhibition of human RVH-421 cell growth in a cell viability assay.

S-117 = format: functional, cell-based, Homo sapiens; details: Homo sapiens, S-117
Description: SANGER: Inhibition of human S-117 cell growth in a cell viability assay.

SK-HEP1 = format: functional, cell-based, Homo sapiens, SK-HEP-1; details: Homo sapiens, SK-HEP1;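 further: cell viability readout used to quantify reduction in proliferation of human SK-HEP-1 cells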
Description: SANGER: Inhibition of human SK-HEP-1 cell growth in a cell viability assay.

SK-LMS-1 = format: functional, cell-based, Homo sapiens; details: Homo sapiens, SK-LMS-1;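 further: growth inhibition of human SK-LMS-1 cells, read out with a cell viability assay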
Description: SANGER: Inhibition of human SK-LMS-1 cell growth in a cell viability assay.

SK-MEL-1 = format: functional, cell-based; details: Homo sapiens;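 further: growth inhibition of human SK-MEL-1 cells, read out by a cell viability assay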
Description: SANGER: Inhibition of human SK-MEL-1 cell growth in a cell viability assay.

SW872 = format: functional, cell-based, Homo sapiens; details: Homo sapiens, SW872;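 further: growth inhibition of SW872 cells, read out by a viability assay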
Description: SANGER: Inhibition of human SW872 cell growth in a cell viability assay.

T47D = format: functional, cell-based, Homo sapiens; details: Homo sapiens, T47D;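 further: growth inhibition of human T47D cells, measured with a cell viability assay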
Description: SANGER: Inhibition of human T47D cell growth in a cell viability assay.

A-431 = format: functional, cell-based, Homo sapiens; details: Homo sapiens, A-431;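 further: growth inhibition of A-431 cells, determined with a cell viability read-out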
Description: SANGER: Inhibition of human A431 cell growth in a cell viability assay.

ACHN = format: functional, cell-based, Homo sapiens; details: Homo sapiens, ACHN;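 further: cell viability read-out used to gauge how strongly growth of human ACHN cells is suppressed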
Description: SANGER: Inhibition of human ACHN cell growth in a cell viability assay.

ACN = format: functional, cell-based, Homo sapiens; details: Homo sapiens, ACN;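 further: growth inhibition of the human ACN cell line, read out via cell viability testing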
Description: SANGER: Inhibition of human ACN cell growth in a cell viability assay.

BB65-RCC = format: functional, cell-based, Homo sapiens; details: Homo sapiens, BB65-RCC;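 further: growth inhibition of the cell line, measured with a cell viability assay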
Description: SANGER: Inhibition of human BB65-RCC cell growth in a cell viability assay.

BEN = format: functional, cell-based, Homo sapiens; details: Homo sapiens, BEN;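 further: growth inhibition of the BEN cell line, read out with a cell viability assay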
Description: SANGER: Inhibition of human BEN cell growth in a cell viability assay.

C3A = format: functional, cell-based, Homo sapiens; details: Homo sapiens, C3A;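 further: growth inhibition of C3A human cells, quantified with a cell viability readout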
Description: SANGER: Inhibition of human C3A cell growth in a cell viability assay.

CAL-62 = format: functional, cell-based, Homo sapiens; details: Homo sapiens, CAL-62;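 further: growth inhibition of CAL-62 cells, read out with a cell viability assay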
Description: SANGER: Inhibition of human CAL-62 cell growth in a cell viability assay.

TE-5 = format: functional, cell-based, Homo sapiens; details: Homo sapiens, TE-5;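 further: inhibition of cell growth, read out by a cell viability assay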
Description: SANGER: Inhibition of human TE-5 cell growth in a cell viability assay.

TE-8 = format: functional, cell-based, Homo sapiens; details: Homo sapiens, TE-8;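 further: growth inhibition of TE-8 cells, measured with a cell viability readout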
Description: SANGER: Inhibition of human TE-8 cell growth in a cell viability assay.

UACC-257 = format: functional, cell-based, Homo sapiens; details: Homo sapiens, UACC-257
Description: SANGER: Inhibition of human UACC-257 cell growth in a cell viability assay.

UMUC3 = format: functional, cell-based, Homo sapiens; details: Homo sapiens, UMUC3;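 further: growth inhibition of human UM-UC-3 cells, read out with a cell viability assay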
Description: SANGER: Inhibition of human UM-UC-3 cell growth in a cell viability assay.

no-11 = format: functional, cell-based, Homo sapiens; details: Homo sapiens;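 further: growth inhibition of human NO-11 cells, read out with a cell viability assay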
Description: SANGER: Inhibition of human no-11 cell growth in a cell viability assay.

COLO-684 = format: functional, cell-based; details: Homo sapiens
Description: SANGER: Inhibition of human COLO-684 cell growth in a cell viability assay.

C=CCc1cccc(/C=N/NC(=O)CN2CCN(Cc3ccccc3)CC2)c1O [PAC-1]
IC50 (COLO-829): > 2.56 µM
IC50 (CaR-1): > 2.56 µM
IC50 (Calu-3): > 2.56 µM
IC50 (ChaGo-K-1): > 2.56 µM
IC50 (D-542MG): > 2.56 µM
IC50 (DEL): > 2.56 µM
IC50 (DU-4475): 1.91 µM
IC50 (HCT-116): > 2.56 µM
IC50 (HEC-1): > 2.56 µM
IC50 (HL-60): > 2.56 µM
IC50 (HPAF-II): > 2.56 µM
IC50 (HT1197): > 2.56 µM
IC50 (HT-144): 2.5 µM
IC50 (JAR): > 2.56 µM
IC50 (KARPAS-299): > 2.56 µM
IC50 (LNCaP-Clone-FGC): > 2.56 µM
IC50 (MZ2-MEL): > 2.56 µM
IC50 (NCI-H1563): > 2.56 µM
IC50 (NCI-H1693): > 2.56 µM
IC50 (NCI-H1770): > 2.56 µM
IC50 (NCI-H209): > 2.56 µM
IC50 (NCI-H2228): > 2.56 µM
IC50 (NCI-H23): > 2.56 µM
IC50 (NCI-H358): 1.24 µM
IC50 (NCI-H526): > 2.56 µM
IC50 (NCI-H650): > 2.56 µM
IC50 (NCI-H661): > 2.56 µM
IC50 (SNU1): > 2.56 µM
IC50 (OVCAR-8): > 2.56 µM
IC50 (PFSK-1): > 2.56 µM
IC50 (RMG-I): > 2.56 µM
IC50 (RVH-421): > 2.56 µM
IC50 (S-117): > 2.56 µM
IC50 (SK-HEP1): > 2.56 µM
IC50 (SK-LMS-1): > 2.56 µM
IC50 (SK-MEL-1): > 2.56 µM
IC50 (SW872): > 2.56 µM
IC50 (T47D): > 2.56 µM
IC50 (A-431): > 2.56 µM
IC50 (ACHN): 1.69 µM
IC50 (ACN): 1.79 µM
IC50 (BB65-RCC): > 2.56 µM
IC50 (BEN): > 2.56 µM
IC50 (C3A): > 2.56 µM
IC50 (CAL-62): > 2.56 µM
IC50 (TE-5): > 2.56 µM
IC50 (TE-8): > 2.56 µM
IC50 (UACC-257): > 2.56 µM
IC50 (UMUC3): > 2.56 µM
IC50 (no-11): > 2.56 µM
IC50 (COLO-684): > 2.56 µM

Cc1ccc(Nc2nccc(N(C)c3ccc4c(C)n(C)nc4c3)n2)cc1S(N)(=O)=O [PAZOPANIB]
IC50 (COLO-829): > 8 µM
IC50 (CaR-1): > 8 µM
IC50 (Calu-3): > 8 µM
IC50 (ChaGo-K-1): > 8 µM
IC50 (D-542MG): > 8 µM
IC50 (DEL): > 8 µM
IC50 (DU-4475): > 8 µM
IC50 (HCT-116): > 8 µM
IC50 (HEC-1): > 8 µM
IC50 (HL-60): > 8 µM
IC50 (HPAF-II): > 8 µM
IC50 (HT1197): > 8 µM
IC50 (HT-144): > 8 µM
IC50 (JAR): > 8 µM
IC50 (KARPAS-299): > 8 µM
IC50 (LNCaP-Clone-FGC): > 8 µM
IC50 (MZ2-MEL): 6.93 µM
IC50 (NCI-H1563): > 8 µM
IC50 (NCI-H1693): > 8 µM
IC50 (NCI-H1770): > 8 µM
IC50 (NCI-H209): > 8 µM
IC50 (NCI-H2228): > 8 µM
IC50 (NCI-H23): > 8 µM
IC50 (NCI-H358): > 8 µM
IC50 (NCI-H526): > 8 µM
IC50 (NCI-H650): > 8 µM
IC50 (NCI-H661): > 8 µM
IC50 (SNU1): > 8 µM
IC50 (OVCAR-8): > 8 µM
IC50 (PFSK-1): > 8 µM
IC50 (RMG-I): > 8 µM
IC50 (RVH-421): > 8 µM
IC50 (S-117): 7.58 µM
IC50 (SK-HEP1): > 8 µM
IC50 (SK-LMS-1): > 8 µM
IC50 (SK-MEL-1): > 8 µM
IC50 (SW872): > 8 µM
IC50 (T47D): > 8 µM
IC50 (A-431): > 8 µM
IC50 (ACHN): > 8 µM
IC50 (ACN): > 8 µM
IC50 (BB65-RCC): > 8 µM
IC50 (BEN): > 8 µM
IC50 (C3A): > 8 µM
IC50 (CAL-62): > 8 µM
IC50 (TE-5): > 8 µM
IC50 (TE-8): 6.16 µM
IC50 (UACC-257): > 8 µM
IC50 (UMUC3): > 8 µM
IC50 (no-11): > 8 µM
IC50 (COLO-684): > 8 µM
